Measurements taken from ChEMBL document CHEMBL4354862, “Peptidomimetic Vinyl Heterocyclic Inhibitors of Cruzain Effect Antitrypanosomal Activity” (J Med Chem, 2020).
Blank lines part the entries; values can stand above or below the compound they belong to.

Key:
[1] = biological target: T1, Cruzipain (Trypanosoma cruzi, UniProt P25779); assay: Inhibition of Trypanosoma cruzi cruzain assessed as rate constant for enzyme-inhibitor complex using Cbz-Phe-Arg-AMC as substrate and measured up to 40 mins by fluorescence assay; conditions: read-out: Ki(app)
T1 sequence (P25779 whole entry): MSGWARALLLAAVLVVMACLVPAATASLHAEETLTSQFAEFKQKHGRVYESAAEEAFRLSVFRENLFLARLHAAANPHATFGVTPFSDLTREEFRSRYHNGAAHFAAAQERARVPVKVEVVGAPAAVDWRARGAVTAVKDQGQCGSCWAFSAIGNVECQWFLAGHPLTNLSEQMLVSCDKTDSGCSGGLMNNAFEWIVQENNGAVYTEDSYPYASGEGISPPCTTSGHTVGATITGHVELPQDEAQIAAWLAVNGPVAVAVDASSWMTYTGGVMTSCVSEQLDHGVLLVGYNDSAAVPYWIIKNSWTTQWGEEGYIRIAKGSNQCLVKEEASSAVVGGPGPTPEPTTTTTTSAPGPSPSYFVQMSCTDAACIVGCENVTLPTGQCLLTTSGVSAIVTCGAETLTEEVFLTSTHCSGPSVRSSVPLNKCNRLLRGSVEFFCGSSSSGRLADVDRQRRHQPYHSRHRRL

[2] = Glutathione reactivity of the compound in 10% DMSO (v/v)/pH 8 Tris buffer assessed as GSH adduct formation by measuring equilibrium constant measured after 90 mins by HPLC-MS analysis; format: ADME
[3] = Glutathione reactivity of the compound in 10% DMSO (v/v)/pH 8 Tris buffer assessed as GSH adduct formation by measuring rate of-thiolation at 2:1 molar ratio of GSH/inhibitor by HPLC-MS analysis; format: ADME
[4] = Glutathione reactivity of the compound in 10% DMSO (v/v)/pH 8 Tris buffer assessed as GSH adduct formation by measuring retention time at 0.5 mM by HPLC-MS analysis; format: ADME; conditions: pH 8, 500 µM
[5] = tested on: Trypanosoma brucei brucei; assay: Antitrypanosomal activity against Trypanosoma brucei brucei ATCC PRA-381 procyclic trypomastigotes supplemented with fresh medium containing compound daily for 4 days by coulter counting method; format: functional, organism-based; conditions: ATCC PRA-381, 96 h
[6] = Selectivity ratio of Ki for human Cathepsin L to Ki for Trypanosoma cruzi cruzain; format: toxicity
[7] = tested on: Trypanosoma brucei brucei; assay: Antitrypanosomal activity against Trypanosoma brucei brucei ATCC PRA-383 bloodstream forms supplemented with fresh medium containing compound daily for 4 days by coulter counting method; conditions: ATCC PRA-383, 96 h
[8] = Selectivity index, ratio of CC50 for HDF cells to EC50 for Trypanosoma cruzi Ca-I/72 infected in mouse C2C12 cells; format: toxicity, cell-based; conditions: read-out: Ratio CC50/EC50
[9] = tested on: Trypanosoma cruzi; assay: Antitrypanosomal activity against axenic cultures of Trypanosoma cruzi Y ATCC 50832GFP epimastigotes supplemented with fresh medium containing compound daily for 5 days by coulter counting method; format: functional, organism-based; conditions: 120 h
[10] = Selectivity ratio of Ki for human Cathepsin B to Ki for Trypanosoma cruzi cruzain; format: toxicity
[11] = tested on: Trypanosoma cruzi; assay: Antitrypanosomal activity against Trypanosoma cruzi Ca-I/72 infected in mouse C2C12 cells measured after 48 hrs by 4',6-diamidino-2-phenylindole staining based microscopic analysis; format: functional, organism-based; conditions: Ca-I/72, C2C12, 48 h
[12] = Solubility of the compound in 10% DMSO v/v at 1 to 200 uM measured up to 120 mins; format: physicochemical; conditions: 2 h
[13] = tested on: Trypanosoma cruzi; assay: Potency index, ratio of K11777 IC50 to test compound IC50 for axenic cultures of Trypanosoma cruzi Y ATCC 50832GFP epimastigotes; format: functional
[14] = Selectivity ratio of Ki for human Cathepsin S to Ki for Trypanosoma cruzi cruzain; format: toxicity
[15] = tested on: C2C12; assay: Cytotoxicity against mouse C2C12 cells assessed as reduction in cell viability measured after 48 hrs by 4',6-diamidino-2-phenylindole staining based microscopic analysis; conditions: c2c12, 48 h
[16] = tested on: NHDF; assay: Cytotoxicity against HDF cells assessed as reduction in cell viability measured after 48 hrs by resazurin dye based fluorescence assay; conditions: human
[17] = tested on: Trypanosoma cruzi; assay: Antitrypanosomal activity against Trypanosoma cruzi Brazil epimastigotes measured after 48 hrs by [3H]thymidine incorporation based beta-counting method; format: functional, organism-based
[18] = Glutathione reactivity of the compound in 10% DMSO (v/v)/pH 8 Tris buffer assessed as GSH adduct formation by measuring rate of-thiolation at 0.5 mM by HPLC-MS analysis; format: ADME; conditions: pH 8, 500 µM
[19] = biological target: Cruzipain (Trypanosoma cruzi) (UniProt P25779); assay: Reversible inhibition of Trypanosoma cruzi cruzain assessed as rate constant K4 using Cbz-Phe-Arg-AMC as substrate preincubated for 1 hr followed by enzyme-compound mixture dilution in presence of substrate by fluorescence assay
Chain of Cruzipain (Trypanosoma cruzi) (P25779 123-467 limits assumed): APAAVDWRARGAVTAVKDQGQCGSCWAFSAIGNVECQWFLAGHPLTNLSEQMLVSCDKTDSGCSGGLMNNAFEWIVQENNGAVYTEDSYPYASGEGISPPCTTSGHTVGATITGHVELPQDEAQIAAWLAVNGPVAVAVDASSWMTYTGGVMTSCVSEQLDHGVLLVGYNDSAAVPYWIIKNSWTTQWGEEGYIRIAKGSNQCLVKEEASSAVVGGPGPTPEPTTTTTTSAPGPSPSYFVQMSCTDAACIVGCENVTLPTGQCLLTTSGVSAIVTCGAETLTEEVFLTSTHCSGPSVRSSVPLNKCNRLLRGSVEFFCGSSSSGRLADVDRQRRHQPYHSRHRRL

[20] = biological target: Cruzipain (Trypanosoma cruzi) (UniProt P25779); assay: Reversible inhibition of Trypanosoma cruzi cruzain assessed as rate constant K3 using Cbz-Phe-Arg-AMC as substrate preincubated for 1 hr followed by enzyme-compound mixture dilution in presence of substrate by fluorescence assay
[21] = biological target: Cathepsin S (Homo sapiens, UniProt P25774); assay: Inhibition of recombinant human Cathepsin S expressed in Escherichia coli assessed as rate constant for enzyme-inhibitor-substrate complex using Cbz-Phe-Arg-AMC as substrate measured up to 40 mins by fluorescence assay
Chain of Cathepsin S (P25774 whole entry): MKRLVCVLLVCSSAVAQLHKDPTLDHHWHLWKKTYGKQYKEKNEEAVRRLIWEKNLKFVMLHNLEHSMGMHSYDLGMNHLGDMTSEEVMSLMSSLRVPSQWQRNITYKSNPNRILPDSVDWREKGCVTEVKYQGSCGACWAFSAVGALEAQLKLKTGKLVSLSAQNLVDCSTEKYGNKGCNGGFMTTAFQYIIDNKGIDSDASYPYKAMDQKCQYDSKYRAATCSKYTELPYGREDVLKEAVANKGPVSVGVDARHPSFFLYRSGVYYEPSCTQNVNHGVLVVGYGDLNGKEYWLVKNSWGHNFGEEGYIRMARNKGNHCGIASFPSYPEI

[22] = biological target: Cathepsin B (Homo sapiens, UniProt P07858); assay: Inhibition of human Cathepsin B assessed as rate constant for enzyme-inhibitor-substrate complex using Cbz-Phe-Arg-AMC as substrate measured up to 40 mins by fluorescence assay
[23] = biological target: Procathepsin L (Homo sapiens, UniProt P07711); assay: Inhibition of human Cathepsin L assessed as rate constant for enzyme-inhibitor-substrate complex using Cbz-Phe-Arg-AMC as substrate measured up to 40 mins by fluorescence assay
Chain of Procathepsin L (P07711 whole entry): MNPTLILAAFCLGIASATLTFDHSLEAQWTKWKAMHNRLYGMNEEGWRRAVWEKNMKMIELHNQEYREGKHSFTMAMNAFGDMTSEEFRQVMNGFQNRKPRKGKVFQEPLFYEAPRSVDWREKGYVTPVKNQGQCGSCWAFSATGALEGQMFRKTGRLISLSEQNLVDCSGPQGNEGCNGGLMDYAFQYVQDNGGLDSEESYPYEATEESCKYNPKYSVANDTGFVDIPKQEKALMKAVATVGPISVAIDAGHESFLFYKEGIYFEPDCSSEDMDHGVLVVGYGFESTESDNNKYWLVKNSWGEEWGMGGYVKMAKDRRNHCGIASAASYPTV

[24] = biological target: T1, Cruzipain; assay: Inhibition of Trypanosoma cruzi cruzain using Cbz-Phe-Arg-AMC as substrate and measured up to 40 mins by fluorescence assay
[25] = biological target: Cruzipain (Trypanosoma cruzi) (UniProt P25779); assay: Irreversible inhibition of Trypanosoma cruzi cruzain assessed as ratio of Kinact to Ki using Cbz-Phe-Arg-AMC as substrate by fluorescence assay

SMILES: COc1ccnc(/C=C/[C@H](CCc2ccccc2)NC(=O)[C@H](Cc2ccccc2)NC(=O)OCc2ccccc2)c1
Ki [1]: > 5 µM

Ke [2]: 930 M⁻¹ | K [3]: 15 M⁻¹ s⁻¹ | Retention_time [4]: 3.61 min
SMILES: C[n+]1ccsc1/C=C/[C@H](Cc1ccccc1)NC(=O)[C@H](Cc1ccccc1)NC(=O)OCc1ccccc1.[I-]

SMILES: C[n+]1ccccc1/C=C/[C@H](Cc1ccccc1)NC(=O)[C@H](Cc1ccccc1)NC(=O)OCc1ccccc1.[I-]
Ke [2]: 7400 M⁻¹ | EC50 [5]: 13 µM | Ratio Ki [6]: >= 3 | EC50 [7]: 6.6 µM | selectivity ratio [8]: > 10 | EC50 [9]: 8.7 µM | Ratio Ki [10]: 40 | K [3]: 37 M⁻¹ s⁻¹ | EC50 [11]: 9.9 µM | solubility [12]: >= 50 uM | Ratio IC50 [13]: 10 | Ratio Ki [14]: >= 3 | CC50 [15]: > 10 µM | CC50 [16]: > 100 µM

SMILES: O=C(N[C@@H](Cc1ccccc1)C(=O)N[C@H](/C=C/c1ncccn1)CCc1ccccc1)OCc1ccccc1
Ki [1]: > 35 µM

SMILES: CN1CCN(C(=O)N[C@@H](Cc2ccccc2)C(=O)N[C@H](/C=C/S(=O)(=O)c2ccccc2)CCc2ccccc2)CC1 [K-777]
EC50 [5]: 1.7 µM | EC50 [7]: 0.09 µM | EC50 [9]: > 20 µM | Retention_time [4]: 4.64 min | EC50 [11]: 0.7 µM | CC50 [15]: > 10 µM | CC50 [16]: 60 to 100 µM | EC50 [17]: 60 µM | K [18]: 0.00028 s⁻¹

SMILES: O=C(N[C@@H](Cc1ccccc1)C(=O)N[C@H](/C=C/c1ccccn1)CCc1ccccc1)OCc1ccccc1
EC50 [5]: > 10 µM | EC50 [7]: 4 µM | EC50 [9]: > 20 µM | EC50 [11]: 5.9 µM | CC50 [15]: > 10 µM | CC50 [16]: > 100 µM

SMILES: O=C(N[C@@H](Cc1ccccc1)C(=O)N[C@H](/C=C/c1ncco1)Cc1ccccc1)OCc1ccccc1
EC50 [5]: 27 µM | EC50 [9]: > 20 µM | CC50 [16]: > 100 µM

SMILES: CN1CCN(C(=O)N[C@@H](Cc2ccccc2)C(=O)N[C@H](/C=C/c2ncccn2)CCc2ccccc2)CC1
EC50 [5]: 15 µM | EC50 [7]: > 20 µM | EC50 [9]: 20 µM | Ki [1]: > 10 µM

K [19]: 0.0018 s⁻¹ | solubility [12]: >= 100 uM
SMILES: O=C(N[C@@H](Cc1ccccc1)C(=O)N[C@H](/C=C/c1ncccn1)Cc1ccccc1)OCc1ccccc1
CC50 [15]: > 10 µM | CC50 [16]: > 100 µM

SMILES: C[n+]1ccccc1/C=C/[C@H](CCc1ccccc1)NC(=O)[C@H](Cc1ccccc1)NC(=O)OCc1ccccc1
Ke [2]: 2400 M⁻¹ | EC50 [5]: 5.9 µM | Ratio Ki [6]: > 10 | EC50 [7]: 2.8 µM | selectivity ratio [8]: > 20 | K [20]: 0.0012 to 0.004 s⁻¹ | EC50 [9]: 2.1 µM | Ki [1]: 0.76 µM | Ratio Ki [10]: > 10 | K [3]: 54 M⁻¹ s⁻¹ | Ki [21]: 0.32 µM | Retention_time [4]: 4.72 min | Ki [22]: 37 µM | Ki [23]: 0.88 µM | EC50 [11]: 5.4 µM | K [19]: 0.00019 s⁻¹ | solubility [12]: >= 50 uM | Ratio IC50 [13]: 10 | Ratio Ki [14]: > 10 | CC50 [15]: > 10 µM | CC50 [16]: > 100 µM | Ki [24]: 2 to 4.3 µM

kinact/Ki [25]: 21.7 M⁻¹ s⁻¹
SMILES: NC(=O)/C=C/[C@H](Cc1ccccc1)NC(=O)[C@H](Cc1ccccc1)NC(=O)OCc1ccccc1

kinact/Ki [25]: 1900 M⁻¹ s⁻¹
SMILES: CN1CCN(C(=O)N[C@@H](Cc2ccccc2)C(=O)N[C@H](/C=C/C(N)=O)CCc2ccccc2)CC1

solubility [12]: <= 2 uM
SMILES: O=C(N[C@@H](Cc1ccccc1)C(=O)N[C@H](/C=C/c1ccc([N+](=O)[O-])cc1)Cc1ccccc1)OCc1ccccc1

kinact/Ki [25]: 1700 M⁻¹ s⁻¹
SMILES: NC(=O)/C=C/[C@H](CCc1ccccc1)NC(=O)[C@H](Cc1ccccc1)NC(=O)OCc1ccccc1

SMILES: O=C(N[C@@H](Cc1ccccc1)C(=O)N[C@H](/C=C/c1ccccn1)Cc1ccccc1)OCc1ccccc1
EC50 [9]: > 20 µM | K [19]: 0.0012 s⁻¹ | solubility [12]: <= 30 uM | CC50 [15]: > 10 µM | CC50 [16]: > 100 µM

solubility [12]: <= 2 uM
SMILES: O=C(N[C@@H](Cc1ccccc1)C(=O)N[C@H](/C=C/c1ccccc1)Cc1ccccc1)OCc1ccccc1
